The values that follow come from US20220347180A1, “ENHANCING CANCER THERAPY TREATMENT WITH BH3 MIMETICS” (THE REGENTS OF THE UNIVERSITY OF COLORADO, A BODY CORPORATE, priority 2019, published 2022).

The term IC50 denotes the concentration that inhibits the measured activity by half.

Entries after “also recorded” stand apart in the source; their conditions may differ. Where two headings read alike, the source gives them in different places.

Series [1] has as its system MB2724 melanoma line. The experiment in a line: ATP viability assay (Cell Titer-Glo). Type of series: cell-based. To be noted: Homo sapiens; MB2724, Triple WT, acral, 48 h. The procedure: (§1) Cells were treated for 48 h for viability assays and primary sphere assays.
(§2) ATP viability assay, primary and secondary sphere assays: Cell viability was evaluated via Cell Titer-Glo Luminescent cell viability assay (Promega Corp., Madison, Wis.) according to the manufacturer's protocol. All sphere assays were completed as previously described. The experimental schematic for the primary and secondary sphere assays was described previously. All assays were performed in no less than triplicate for each cell line and repeated at least three times for each line. Drug treatments began 120 h after seeding in the primary sphere assay and 24 h after seeding for the monolayer ATP assay.
(§3) Calculation of IC50 and Combination index (CI) values: IC50 values were calculated from the relative viability results of ATP assays, and were derived by a sigmoidal dose (log)-response (variable slope) curve with GraphPad Prism 8 software. […] This method uses a median-effect equation and Combination-index theorem to calculate synergy between two drugs and identifies the drug interaction as values […]. This is defined as combination-index values (CI values). The program requires entering a series of “dose (D) and effect (fa)” into the program for each drug alone as well as the combination therapy.
For orientation: Cellular ATP, detected with luciferase, serves as a proxy for viable cell number.

Series [2] deals with A375 melanoma line. Kind of series: ATP viability assay (Cell Titer-Glo). The format is cell-based. To be noted: Homo sapiens, A-375; A375, BRAFV600E, 48 h. As for the experimental part:
as §1, §2, §3

Series [3] deals with Hs852T melanoma line. The experiment in a line: ATP viability assay (Cell Titer-Glo). Type of series: cell-based. To be noted: Homo sapiens, WT for BRAF, 48 h. The procedure:
as §1, §2, §3

The test system of series [4] is Hs294T melanoma line. The experiment in a line: ATP viability assay (Cell Titer-Glo). The format is cell-based. To be noted: Homo sapiens, Hs 294T, WT for BRAF/NRAS, 48 h. The procedure:
as §1, §2, §3

Series [5] has as its system MB2141 melanoma line. Kind of series: ATP viability assay (Cell Titer-Glo). To be noted: Homo sapiens; MB2141, EML4-ALK, mucosal, 48 h. Type of series: cell-based. The procedure:
as §1, §2, §3

The test system of series [6] is MB3429 melanoma line. Kind of series: ATP viability assay (Cell Titer-Glo). Type of series: cell-based. To be noted: Homo sapiens, 48 h. The procedure: as §1, §2, §3
The test system of series [7] is MB2114 melanoma line. The experiment in a line: ATP viability assay (Cell Titer-Glo). Type of series: cell-based. To be noted: Homo sapiens; MB2114, BRAF V600E, 48 h. As for the experimental part: as §1, §2, §3
In series [8] the test system is MB4667 melanoma line. Kind of series: ATP viability assay (Cell Titer-Glo). The format is cell-based. To be noted: Homo sapiens; MB4667, NRAS Q61R, acral, 48 h. As for the experimental part: as §1, §2, §3
The test system of series [9] is MB3961 melanoma line. Kind of series: ATP viability assay (Cell Titer-Glo). The format is cell-based. To be noted: Homo sapiens; MB3961, NRAS Q61K, 48 h. The procedure:
as §1, §2, §3

Series [10] concerns MB3616 melanoma line. The experiment in a line: ATP viability assay (Cell Titer-Glo). Type of series: cell-based. To be noted: Homo sapiens; MB3616, NRAS Q61K, 48 h. As for the experimental part:
as §1, §2, §3

Series [11] concerns WM852c melanoma line. Kind of series: ATP viability assay (Cell Titer-Glo). The format is cell-based. To be noted: Homo sapiens, NRAS, 48 h. The procedure:
as §1, §2, §3

Series [12] concerns 1205Lu melanoma line. Kind of series: ATP viability assay (Cell Titer-Glo). Type of series: cell-based. To be noted: Homo sapiens, BRAFV600E, 48 h. As for the experimental part:
as §1, §2, §3

In series [13] the test system is MB1692 melanoma line. The experiment in a line: ATP viability assay (Cell Titer-Glo). Type of series: cell-based. To be noted: Homo sapiens; MB1692, AGK-BRAF, 48 h. The procedure:
as §1, §2, §3

Series [14] deals with SKMEL-28 melanoma line. The experiment in a line: ATP viability assay (Cell Titer-Glo). To be noted: Homo sapiens, SK-MEL-28; SKMEL-28, BRAFV600E, 48 h. Type of series: cell-based. The procedure: as §1, §2, §3
Series [15] deals with MB3447 melanoma line. The experiment in a line: ATP viability assay (Cell Titer-Glo). Type of series: cell-based. To be noted: Homo sapiens; MB3447, Triple WT, 48 h. The procedure: as §1, §2, §3
For series [16] the following is noted: higher doses and more frequently than in the current study; cited from earlier work.
In series [17] the test system is regulatory T cells (Tregs). To be noted: cited from earlier work.
Series [18] relates to A375 cells. Kind of series: Viability of A375 cells with BCL2 or MCL1 knockdown. Type of series: cell-based, human. To be noted: A375, 48 h. The source says: (a and b) Comparison between two genotypic groups: BRAF-hotspot mutated (MUT) (n=110) and BRAF-WT (WT) (harboring RAS hotspot mutated, any NF1 mutated, and triple wild type n=122). Panel (a) mRNA expression values for BCL2, CASP8, PDCD4, and MCL1. Panel (b) Relative RPPA protein expression values for PDCD4, CASP8, and BCL2. MCL1 was not included on the RPPA panel. Each dot represents an individual sample, and the horizontal line represents the mean. Panels (c) and (d) show the effects of BCL2 or MCL1 knockdown in A375 cells. Cells were treated with the indicated drugs for 48 h. […] Error bars represent +/−SEM.
Creation of short hairpin RNA transduced cell lines and CRISPR/Cas9-mediated BIM knockout cell lines: ShRNA lentiviral particles (Santa Cruz Biotechnology, Dallas, Tex.) were used to construct stable cell lines as previously described. BIM-knockout lines were generated using CRISPR/Cas9 technology, as previously described.

The test system of series [19] is tumor-infiltrating immune cells. Kind of series: Flow cytometry of tumor-infiltrating immune cells, B16 syngeneic model. The format is in vivo, mouse. To be noted: 40 mg/kg, day 10 post tumor implantation. As for the experimental part: (§4) 2.0×10^5 B16F10 melanoma cells were injected in the flanks of 7-week-old C57BL/6J mice on day 0. MCL1 inhibitors was administered retro-orbitally daily at 40 mg/kg, starting at day 6 post tumor implantation. […] Flow cytometry of tumor-infiltrating immune cells of Veh (vehicle control) and 40 mg/kg MCL1 inhibitor S63845 treated tumors at day 10 post tumor implantation. […] Similar experiments as in a, except with i.p injection. […] 2.0×10^5 B16F10 melanoma cells were injected in the flanks of 7-week-old C57BL/6J mice. MCL1-i was administered through retro-orbital injection daily at 40 mg/kg on days 5-9, and anti-PD1 was injected intraperitoneally at 250 ug on days 7, 11, 14 and 16.
(§5) Tumor volume was measured every 2 days with digital calipers. The following formula was used to calculate tumor volume: tumor volume (mm3)=(length in mm×width in mm2)/2.
A general note: In flow cytometry, cells or beads pass a laser one at a time.

The subject of series [20] is MP41. To be noted: MP41 uveal melanoma xenograft. As for the experimental part:
A uveal melanoma cell line, MP41, was used in the xenograft study, and tumor volume Panel (a) and weight of the mice Panel (b) were measured.
The viability of the DMSO control for each cell line was set to 100%. Panel (c) A uveal melanoma line, MP41, was used in the xenograft study, and tumor volume and weight of the mice were measured.
Drug treatments started when the tumors were palpable. Treatment groups consisted of randomly divided mice of at least 8 tumors each group. All drugs were prepared according to the manufacturer's protocol, or previously described. S63845 was administered at 25 mg/kg twice weekly. […] The tumor samples were collected at the end of the experiment for further studies.

Series [21] has as its system human melanoma lines. The experiment in a line: ATP viability assay, panel of melanoma lines. Type of series: cell-based. To be noted: single drug, up to 2.5 uM, 48 h. As for the experimental part: as §1, §2, §3
Series [22] has as its system B16F10 melanoma cells. Type of series: in vivo. To be noted: retro-orbitally daily at 40 mg/kg from day 6 post implantation. The procedure:
as §4, §5
Tumor volume was measured every 2 days with digital calipers.

In the case of `CC1(C)CCC(CN2CCN(c3ccc(C(=O)NS(=O)(=O)c4ccc(NCC5CCOCC5)c([N+](=O)[O-])c4)c(Oc4cnc5[nH]ccc5c4)c3)CC2)=C(c2ccc(Cl)cc2)C1` [ABT-199, venetoclax], the IC50 in series [1] was > 10 µM; in series [2], > 10 µM; in [3], 8.8 µM; in series [4], > 10 µM; in [5], > 10 µM; in series [6] (MB3429, BRAF G596C, GNA11 R183C, read-out: IC50), 3.91 µM. For the same molecule, the IC50 was > 10 µM in series [7]; 7.69 µM in [8]; > 10 µM in series [9]; 9.69 µM in series [10]; > 10 µM in series [11]; > 10 µM in series [12]. Moreover, the IC50 in [13], in series [14] and in series [15] was > 10 µM each time.
As to `Cc1c2c(nn1C)CSCc1cc(n(C)n1)CSc1cc(c3ccccc3c1)OCCCc1c(C(=O)O)n(C)c3c-2c(Cl)ccc13` [AZD5991], the toxicity result in [16] is on record as “Minimal toxicity”.
Turning to `COC1=CC(c2cc3ccccc3[nH]2)=N/C1=C\c1[nH]c(C)cc1C` [GX15-070], in series [17], the “cell death of regulatory T cells” value is on record as “preferentially induces cell death”.
Turning to `Cc1c(-c2c(-c3ccc(F)o3)sc3ncnc(O[C@H](Cc4ccccc4OCc4ccnn4CC(F)(F)F)C(=O)O)c23)ccc(OCCN2CCN(C)CC2)c1Cl` [S63845], in [18], the “sensitivity after BCL2 knockdown (shBCL2)” value is “sensitized cells”. Further, in series [19], the “frequency of MDSCs in tumors” value is on record as “drastically decreased”. For the same molecule, the “frequency of tumor-infiltrating CD8+ T cells” value in [19] is on record as “increased”. For the same molecule, the mouse weight result in series [20] is recorded as “without affecting mouse weight”. In series [20], the “tumor growth (tumor volume)” value was “significantly inhibited uveal melanoma tumor growth”. Besides, the “effect on cell viability” value in series [21] is “little effect on cell viability”. In addition, the IC50 in [1] came out at 3.24 µM; in series [2], 6.33 µM; in [3], 6.14 µM; in [4], 2.9 µM; in [5], 2.67 µM; in [6], 8.85 µM. Also, the IC50 in series [7] was > 10 µM; in series [8], > 10 µM; in series [9], 2.91 µM; in [10], 8.11 µM; in series [11], 7.81 µM; in series [12] it was 7.2 µM. For the same molecule, the IC50 in [13] stood at 7.42 µM; in series [14] it was 4 µM; in series [15], 5.49 µM. For the same molecule, the tumor growth entry in series [22] was “blocked tumor growth; also recorded: inhibited tumor growth curve”.
